Laboratory results: patent US6835370B2, “Diagnosis and treatment of malignant neoplasms” (Rhode Island Hospital, priority 1999, dated 2004)

How the values were obtained:
human AAH cDNA (pHAAH) = experiment: in vitro cell free transcription translation assay (TNT Quick Coupled System); format: biochemical; conditions: 100× or 1000× excess oligonucleotide; rabbit reticulocyte lysate, [35S] methionine, SDS-PAGE autoradiography
Experimental: Using an in vitro cell free transcription translation assay (TNT Quick Coupled System), the human AAH cDNA (pHAAH) was used to synthesize AAH protein. […] The translated product was labeled with [^35S] methionine in the presence of reaction buffer, RNA polymerase, amino acid mixture, and ribonuclease inhibitor (RNAsin). The products were analyzed by SDS-PAGE followed by autoradiography. A luciferase (Luc) expressing plasmid was used as a positive control. In the second and third lanes, synthesis of the ˜85 kD AAH protein is shown (AAH, arrow) using 1 or 2 micrograms of plasmid as the template and the T7 DNA-dependent RNA polymerase primer/promoter to generate mRNA.

AAH = experiment: MICE assay of AAH immunoreactivity in transfected cells; format: cell-based; conditions: relative to cells transfected with random oligonucleotide
Experimental: Inhibition of HAAH gene expression is enhanced by contacting cells with a phosphorothioate derivative of the HAAH antisense. Phosphorothioate antisense derivatives are made using methods well known in the art. The MILQ assay was used to measure gene expression resulting from antisense oligonucleotide gene delivery. Cells were contacted with AAH Location-6 antisense DNA, and AAH protein expression was measured using methods known in the art, e.g., the MICE assay (de la Monte, et al, 1999, Biotechniques), to determine if it was inhibited by hybridization with the oligonucleotide. The MICE assay is used to measure inimunoreactivity in cultured cells without the need to extract proteins or perform gel electrophoresis. This assay is more sensitive than Western blot analysis. Using the MICE assay, AAH immunoreactivity was assessed in cells transfected with non-relevant (random) oligonucleotide sequences, specific antisense oligonucleotides (Location-6), and a phosphorothioate Location-6 antisense oligonucleotide.

AAH in PNET2 cells = experiment: Western blot of AAH expression in treated PNET2 cells; format: cell-based, Human
Experimental: Studies were conducted to determine whether AAH expression was modulated with neurite (filopodia) extension (sprouting) as occurs with invasive growth of malignant neoplasms. Human PNET2 CNS-derived and SH-Sy5y neuroblastoma cells were cultured and stimulated for 0, 1, 2, 3, 5, or 7 days with 100 nM phorbol […] or 10 μM retinoic acid to induce sprouting. […] For both studies, AAH expression was evaluated by Western blot analysis using the an HAAH-specific antibody.
(§1) Cells grown in 10 cm^2 dishes were lysed and homogenized in a standard radioimmunoprecipitation assay RIPA buffer containing protease and phosphatase inhibitors. The supernatants collected after centrifuging the samples at 12,000×g for 10 minutes to remove insoluble debris were used for Western blot analysis. Protein concentration was measured using the BCA assay (Pierce Chemical Co, Rockford, Ill.). Samples containing 60 μg of protein were electrophoresed in sodium dodecyl sulfate polyacrylamide gels (SDS-PAGE) and subjected to Western blot analysis. Replicate blots were probed with the individual antibodies. Immunoreactivity was detected with horseradish peroxidase conjugated IgG (Pierce Chemical Co, Rockford, Ill.) and enhanced chemiluminescence reagents. To quantify the levels of protein expression, non-saturated autoradiographs were subjected to volume densitometry using NIH Image software, version 1.6. […]

PNET2 cells = experiment: Trypan blue dye exclusion viability; format: cell-based, Human; conditions: 24 hours, sub-lethal concentrations of H2O2
Experimental: FIGS. 5A-D are bar graphs showing increased AAH expression in PNET2 (FIGS. 5A, 5C) and SH-Sy5y (FIG. 5B) cells treated with retinoic acid (FIGS. 5A, 5B) or phorbol ester myristate (PMA; FIG. 5C) to induce neurite outgrowth as occurs during tumor cell invasion. The cells were treated with 10 μM retinoic acid or 100 nM PMA for 0, 1, 2, 3, 4, or 7 days. Cell lysates were analyzed by Western blot analysis using an HAAH-specific monoclonal antibody to detect the 85 kDa AAH protein. The levels of immunoreactivity were measured by volume densitometry (arbitrary units). The graphs indicate the mean±S.D. of results obtained from three separate experiments. In FIG. 5D, PNET2 cells were treated for 24 hours with sub-lethal concentrations of H2O2 to induce neurite retraction. […] Similar results were obtained for SH-Sy5y cells.
To examine the effect of AAH expression on neurite retraction, PNET2 and SH-Sy5y cells were treated with low concentrations (8-40 μM) of H2O2.

AAH in SH-Sy5y cells = experiment: Western blot of AAH expression in treated SH-Sy5y cells; format: cell-based, Human; conditions: up to 7 days, FIG. 5B
Experimental: Studies were conducted to determine whether AAH expression was modulated with neurite (filopodia) extension (sprouting) as occurs with invasive growth of malignant neoplasms. Human PNET2 CNS-derived and SH-Sy5y neuroblastoma cells were cultured and stimulated for 0, 1, 2, 3, 5, or 7 days with 100 nM phorbol […] or 10 μM retinoic acid to induce sprouting. In addition, to examine the effects of neurite retraction on AAH expression, subconfluent cultures were treated for 24 hours with low concentrations (10-40 μM) of H2O2. For both studies, AAH expression was evaluated by Western blot analysis using the an HAAH-specific antibody.
as §1, with “Samples containing 60 μg of protein were electrophoresed in sodium dodecyl sulfate polyacrylamide gels (SDS-PAGE) and subjected to Western blot analysis. Replicate blots were probed with the individual antibodies.” left out

HAAH gene expression = experiment: insulin stimulation of HAAH gene expression in FOCUS HCC cells; format: cell-based, human; conditions: 20 and 40 U insulin, serum free medium, after 16 hr of serum starvation
Text: IRS-1 mediated signal transduction pathway is activated in 95% of human HCC tumors compared to the adjacent uninvolved liver tissue. HAAH is a downstream effector gene involved in this signal transduction pathway. […] A high level of HAAH protein is expressed in HCC and cholangiocarcinoma compared to normal hepatocytes and bile ducts.

5′ ATCATGCAATGGCCCAGCGTAA 3′ (sense ATCATGCAATGGCCCAGCGTAA; listed as DNA, chemistry not given here) [sense oligonucleotide, sense oligonucleotide beginning at Location-3, control]
inhibition of AAH protein synthesis (human AAH cDNA (pHAAH)): no effect

5′ TTACGCTGGGCCATTGCACG 3′ (antisense TTACGCTGGGCCATTGCACG; listed as DNA, chemistry not given here) [Location-6, AAH antisense oligonucleotide (20 mer)]
AAH immunoreactivity (AAH): reduced levels

OO [H2O2]
levels of AAH protein (AAH in PNET2 cells; 24 hours, 8-40 μM H2O2, FIG. 5D): dose-dependent reductions
Viability of the cells (PNET2 cells): greater than 90%

CCCCCCCCCCCCCC(=O)O[C@@H]1[C@@H](C)[C@@]2(O)[C@@H](C=C(CO)C[C@]3(O)C(=O)C(C)=C[C@@H]23)[C@@H]2C(C)(C)[C@]12OC(C)=O [PMA, phorbol ester myristate]
increase in levels of AAH protein (AAH in PNET2 cells; 24 hours after exposure, 10 μM retinoic acid or 100 nM PMA): at least two-fold
RA- or PMA-stimulated increases in AAH expression (AAH in SH-Sy5y cells): highest after 7 days of treatment

Insulin: insulin used to stimulate FOCUS HCC cells
HAAH gene expression (HAAH gene expression): upregulation
